Publication PMC11354370, “Inducing Receptor Degradation as a Novel Approach to Target CC Chemokine Receptor 2 (CCR2)” (International Journal of Molecular Sciences, 2024)
Where two headings read alike, the source gives them in different places. Values belong to the molecule of their own block, whether it stands above or below them. Peptide text beside a SMILES is read from it. * marks the point of attachment. Cbz = O=C(OCc1ccccc1)*

Columns and labels:
CCR2-HaloTag-HiBiT [1] = experiment: Lytic HiBiT assay with inhibitor pretreatment (2 h) then vehicle or HaloPROTAC3 (3 h); format: cell-based, human; settings: 5 µg plasmid; for HaloPROTAC3-mediated CCR2 degradation after pretreatment with the inhibitor: inhibitor 2 h pretreatment, then 1 µM HaloPROTAC3 3 h
Experimental: To investigate the mechanism of action of HaloPROTAC3-induced degradation of CCR2-HaloTag-HiBiT, we pretreated the cells with a variety of inhibitors. […] After 2 h, the cells were treated with vehicle or HaloPROTAC3 (1µM) and degradation was measured after 3 h of HaloPROTAC3 treatment or vehicle control.
Next, we explored whether degradation occurs via the proteasomal or the lysosomal pathway. […] Finally, we included cycloheximide as an inhibitor of protein synthesis.
Fractional RLU values were calculated from the resulting baseline-corrected values by normalizing all values at a given time point to the vehicle-control value. For lytic HiBiT assays, data are presented as % of vehicle-control; for real-time HiBiT assays, data are presented as fractional RLUs, which corresponds to the ratio between the baseline-corrected RLU values of a compound and the RLU values of the vehicle at any given time point. […] To calculate the degradation rate (K) from real-time HiBiT assays, the degradation curves were fitted to a one-phase exponential decay model following the equation Y = (Y0 − Plateau)e^−Kt + Plateau.

CCR2-HaloTag-HiBiT [2] = target: T1, CCR2-HaloTag-HiBiT (UniProt P0A3G2+P41597, A155T/A167V/A172T/A224E/C128F/C176G/D78G/E160K/E257K/H272N/K175M/K195N/L47V/L88M/N227D/S58T/T264A/Y273L/Y87F); format: cell-based, human; settings: 1 µM pretreatment 3 h, then 60 nM CCL2; HEK293T CCR2-HaloTag-HiBiT
T1 sequence (P41597+P0A3G2 fused with the stated changes): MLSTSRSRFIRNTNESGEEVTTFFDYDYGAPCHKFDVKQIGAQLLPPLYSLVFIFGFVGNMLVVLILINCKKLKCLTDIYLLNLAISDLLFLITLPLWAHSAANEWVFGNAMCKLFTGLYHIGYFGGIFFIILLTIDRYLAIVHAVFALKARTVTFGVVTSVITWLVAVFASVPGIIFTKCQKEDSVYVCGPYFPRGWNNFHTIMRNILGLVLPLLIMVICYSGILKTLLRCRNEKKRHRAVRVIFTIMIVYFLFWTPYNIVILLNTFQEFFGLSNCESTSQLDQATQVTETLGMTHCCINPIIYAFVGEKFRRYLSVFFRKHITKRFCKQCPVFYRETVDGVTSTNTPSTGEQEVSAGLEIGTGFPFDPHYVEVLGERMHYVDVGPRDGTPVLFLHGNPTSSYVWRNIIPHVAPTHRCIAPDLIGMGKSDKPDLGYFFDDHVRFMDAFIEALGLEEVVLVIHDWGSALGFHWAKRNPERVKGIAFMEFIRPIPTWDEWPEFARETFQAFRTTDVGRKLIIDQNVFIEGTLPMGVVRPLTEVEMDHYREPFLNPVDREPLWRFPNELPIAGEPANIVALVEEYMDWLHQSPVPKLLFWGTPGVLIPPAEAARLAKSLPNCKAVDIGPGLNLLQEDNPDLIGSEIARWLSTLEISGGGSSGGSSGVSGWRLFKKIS

CCR2-HaloTag-HiBiT [3] = target: T2, CCR2-HaloTag-HiBiT (Homo sapiens, UniProt P41597); format: cell-based
T2 construct: host or cells: A549 cells, lentiviral transduction, single-cell clones #25, #26, #27
T2 sequence (P41597 other isoform, or with tags, fused parts or gaps): as the sequence (P41597+P0A3G2 fused with the stated changes) above
Excerpt: While the HiBiT luminescence approach provides a good platform for high-throughput screening of targeted protein degradation, integral membrane protein degradation studies benefit from information about their localization. […] To mitigate the need for transfection, we transduced A549 cells with lentiviral particles for stable integration of expression cassettes for CCR2-HaloTag-HiBiT expression constructs, followed by antibiotic selection and limiting dilution to generate single-cell clones.
A549 cells were seeded at 400,000 cells per well in 6 well dishes to be approximately 50% confluent the next day. For seeding 1.5 mL of cell-containing medium was used. A total of 500 µL of lentiviral particles and 1.6 µL of polybrene (Sigma-Aldrich, Merck, Darmstadt, Germany) were added on top, and cells were incubated overnight. The next day, cells were washed two to three times in PBS and a growth medium containing 100 µg/mL of hygromycin B at 100 µg/mL was added. Cells were incubated until non-transduced cells were dead or until transduced cells were confluent (in which case they were split into a bigger flask in a hygromycin selection medium). After selection, cells were diluted to 0.5 cells/200 µL in a growth medium containing 20% FCS, and 96 well plates were seeded with 200 µL per well. Single-cell clones were grown back up to bigger populations and screened by immunofluorescence for HiBiT expression.
A549 CCR2b-HALO-HiBiT expressing cells were seeded onto 384-well plates suitable for high-throughput microscopy (PerkinElmer, Groningen, The Netherlands; Corning, NY, USA) with a density ranging from 2000–4000 cells per well. The next day, plates were treated with different concentrations of HaloPROTAC3 or ent-HaloPROTAC3 using a Tecan D300e digital dispenser. […] Cells were then washed three times in PBS and simultaneously permeabilized and blocked for an hour using a modified blocking buffer (0.1% Triton (v/v), 1% BSA (w/v) (Sigma, A7030, Merck, Darmstadt, Germany)). […] Plates were imaged on either Yokogawa CV7000 or CV8000 systems with appropriate settings for detection of each relevant channel. Images were analyzed using Columbus image analysis.

CCR2-HaloTag-HiBiT [4] = target: T1, CCR2-HaloTag-HiBiT; format: cell-based, human; settings: for Dmax ± SEM (maximal degradation): determined at 1 µM, negative values represent an increase in CCR2 levels
CCR2-HaloTag-HiBiT [5] = target: T1, CCR2-HaloTag-HiBiT; format: cell-based, human
CCR2-HaloTag-HiBiT [6] = target: T1, CCR2-HaloTag-HiBiT; experiment: xCELLigence label-free impedance assay, CCL2 stimulation of HEK293T cells transfected with CCR2-HaloTag-HiBiT; settings: HEK293T cells expressing CCR2-HaloTag-HiBiT

Molecule: CO/C1=C\C(C)=C\[C@@H](C)[C@@H](O)[C@@H](C)C/C(C)=C/C=C/[C@H](OC)[C@@H]([C@@H](C)[C@@H](O)[C@H](C)[C@@]2(O)C[C@@H](O)[C@H](C)[C@@H](C(C)C)O2)OC1=O [Bafilomycin-A1, Bafilomycin A1]
- increase in CCR2-HaloTag-HiBiT levels, exclusive treatment with inhibitor (CCR2-HaloTag-HiBiT [1]; inhibitor 2 h then vehicle 3 h): > 30%

Molecule: Cc1ncsc1-c1ccc(CNC(=O)[C@@H]2C[C@@H](O)CN2C(=O)[C@H](C(C)C)N2Cc3ccccc3C2=O)c(OCCOCCOCCOCCCCCCCl)c1 [HaloPROTAC3]
- remaining CCL2 response (AUC first 20 min, normalized to 60 nM CCL2 alone) (CCR2-HaloTag-HiBiT [2]): 25 ± 19%
- maximal degradation (HiBiT antibody signal) (CCR2-HaloTag-HiBiT [3]; A549 clone #25, 1 µM, 24 h): 39%
- DC50 (CCR2-HaloTag-HiBiT [3]; A549 clone #25, 24 h): 17.1 nM
- reduction of CCR2-HaloTag-HiBiT levels (HiBiT antibody signal) (CCR2-HaloTag-HiBiT [3]; A549 clone #26, 1 µM, 24 h): approximately 80%
- DC50 (CCR2-HaloTag-HiBiT [3]; A549 clone #26, 24 h): 18.1 nM
- pDC50 (CCR2-HaloTag-HiBiT [3]; A549 clone #26, 24 h): 7.8 ± 0.1
- reduction of CCR2-HaloTag-HiBiT levels (HiBiT antibody signal) (CCR2-HaloTag-HiBiT [3]; A549 clone #27, 1 µM, 24 h): approximately 80%
- DC50 (CCR2-HaloTag-HiBiT [3]; A549 clone #27, 24 h): 11.8 nM
- pDC50 (CCR2-HaloTag-HiBiT [3]; A549 clone #27, 24 h): 8.0 ± 0.2
- CCR2 degradation by HaloPROTAC3 in the absence of inhibitor (CCR2-HaloTag-HiBiT [1]; 1 µM HaloPROTAC3, 3 h): 32%
- decrease in CCR2 levels (luminescent signal) compared to vehicle control (CCR2-HaloTag-HiBiT [4]; 1 µM, 24 h, 5 µg plasmid): ~ 35%
- CCR2 degraded, time course (CCR2-HaloTag-HiBiT [4]; 1 µM, after 4 h, 5 µg plasmid (Figure S4)): Approximately 20%
- CCR2 degraded, time course (CCR2-HaloTag-HiBiT [4]; 1 µM, after 24 h, 5 µg plasmid (Figure S4)): 26%
- CCR2 degraded, time course (maximum degradation) (CCR2-HaloTag-HiBiT [4]; 1 µM, by 6 h, 5 µg plasmid (Figure S4)): 24%
- pDC50 ± SEM (apparent potency of degradation) (CCR2-HaloTag-HiBiT [4]; 24 h, 5 µg plasmid): 7.4 ± 0.01
- DC50 (CCR2-HaloTag-HiBiT [4]; 24 h, 5 µg plasmid, read-out: DC50 (apparent degradation potency) (converted)): 42 nM
- Dmax ± SEM (maximal degradation) (CCR2-HaloTag-HiBiT [4]; 24 h): 38 ± 5%
- degradation of CCR2-HaloTag-HiBiT depending on the protein expression levels (CCR2-HaloTag-HiBiT [4]; summary over lytic and real-time HiBiT assays (Figure 2 and Figure 3)): 30–80%
- degradation achieved after 3 h treatment (CCR2-HaloTag-HiBiT [5]; 1 µM (Figure 3B,F)): > 70%
- degradation rate compared with cycloheximide on its own (CCR2-HaloTag-HiBiT [5]; 1 µM HaloPROTAC3 in absence or presence of 10 µM cycloheximide): higher than that determined by cycloheximide on its own
- degradation rate (Kdeg) (CCR2-HaloTag-HiBiT [5]; 1 µM, 1 µg plasmid): 0.000131 ± 1.1e-05 s⁻¹
- maximal degradation at 24 h (CCR2-HaloTag-HiBiT [5]; 1 µM, 1 µg plasmid): 89 ± 2%
- degradation reached after 9 h of treatment up to 24 h (CCR2-HaloTag-HiBiT [5]; 1 µM, 3 µg plasmid): ≥ 90%
- maximal degradation at 24 h (CCR2-HaloTag-HiBiT [5]; 1 µM, 3 µg plasmid): 76 ± 4%
- time Dmax was maintained (CCR2-HaloTag-HiBiT [5]; 1 µM, 3 µg plasmid): ~ 15 h
- degradation rate (Kdeg) (CCR2-HaloTag-HiBiT [5]; 1 µM, 3 µg plasmid, one-phase exponential decay): 0.000144 ± 1.1e-05 s⁻¹
- degradation rate (Kdeg) (CCR2-HaloTag-HiBiT [5]; 1 µM, 5 µg plasmid): 0.000114 ± 4.72e-05 s⁻¹
- maximal degradation at 24 h (CCR2-HaloTag-HiBiT [5]; 1 µM, 5 µg plasmid): 60 ± 6%
- degradation potency (pDmax50) (CCR2-HaloTag-HiBiT [5]; 3 µg plasmid, Dmax at each concentration): 6.7 ± 0.1

Molecule: CC(C)C[C@@H](C=O)NC(=O)[C@H](CC(C)C)NC(=O)[C@H](CC(C)C)NC(=O)OCc1ccccc1 [MG-132] (Cbz-Leu-Leu-Leu-aldehyde)
- HaloPROTAC3-mediated CCR2 degradation after pretreatment with the inhibitor (CCR2-HaloTag-HiBiT [1]): partially or fully recovered
- reduction in CCR2 levels, exclusive treatment with inhibitor (CCR2-HaloTag-HiBiT [1]; inhibitor 2 h then vehicle 3 h): not observed

Molecule: NS(=O)(=O)OC[C@@H]1C[C@@H](n2ccc3c(N[C@H]4CCc5ccccc54)ncnc32)C[C@@H]1O [MLN-4924, Pevonedistat]
- HaloPROTAC3-mediated CCR2 degradation after pretreatment with the inhibitor (CCR2-HaloTag-HiBiT [1]): fully prevented
- reduction in CCR2 levels, exclusive treatment with inhibitor (CCR2-HaloTag-HiBiT [1]; inhibitor 2 h then vehicle 3 h): 24%

Molecule: CC(C)C[C@H](NC(=O)[C@H](Cc1ccccc1)NC(=O)c1cnccn1)B(O)O [bortezomib]
- HaloPROTAC3-mediated CCR2 degradation after pretreatment with the inhibitor (CCR2-HaloTag-HiBiT [1]): partially or fully recovered
- reduction in CCR2 levels, exclusive treatment with inhibitor (CCR2-HaloTag-HiBiT [1]; inhibitor 2 h then vehicle 3 h): ~ 17%

- effect on receptor levels, inhibitor on its own (CCR2-HaloTag-HiBiT [1]; inhibitor 2 h then vehicle 3 h): not affected
Molecule: CCN(CC)CCCC(C)Nc1ccnc2cc(Cl)ccc12 (stereo not shown) [chloroquine, Chloroquine diphosphate]

Molecule: C[C@@H]1C[C@@H]([C@H](O)CC2CC(=O)NC(=O)C2)C(=O)[C@@H](C)C1 [cycloheximide]
- HaloPROTAC3-mediated CCR2 degradation after pretreatment with the inhibitor (CCR2-HaloTag-HiBiT [1]): not affected
- reduction in CCR2 levels, exclusive treatment with inhibitor (CCR2-HaloTag-HiBiT [1]; inhibitor 2 h then vehicle 3 h): more than 50%
- native degradation rate (Knative) of CCR2-HaloTag-HiBiT (CCR2-HaloTag-HiBiT [5]; 10 µM cycloheximide, up to 24 h): 0.25 ± 0.01 h⁻¹

Molecule: Cc1ncsc1-c1ccc(CNC(=O)[C@H]2C[C@H](O)CN2C(=O)[C@@H](C(C)C)N2Cc3ccccc3C2=O)c(OCCOCCOCCOCCCCCCCl)c1 [ent-HaloPROTAC3]
- remaining CCL2 response (AUC first 20 min, normalized to 60 nM CCL2 alone) (CCR2-HaloTag-HiBiT [2]): 85 ± 10%
- effect on HiBiT immunofluorescence signal (CCR2-HaloTag-HiBiT [3]; 1 µM, 24 h, A549 clones): appeared to increase the signal throughout the cell
- decrease in CCR2 levels (luminescent signal) compared to vehicle control (CCR2-HaloTag-HiBiT [4]; 1 µM, 24 h, 5 µg plasmid): comparable to vehicle control
- Dmax ± SEM (maximal degradation) (CCR2-HaloTag-HiBiT [4]; 24 h): −1 ± 4%
- CCR2 levels upon titration of compound (normalized to vehicle control 100%) (CCR2-HaloTag-HiBiT [4]; multiple concentrations, 24 h, maximal level reached): remained unchanged
- CCR2 levels over 24 h (CCR2-HaloTag-HiBiT [5]; 1 µM, all DNA plasmid concentrations (1, 3, 5 µg; Figure S5)): remained unchanged
- change of CCR2 levels, multiple concentrations (CCR2-HaloTag-HiBiT [5]; 3 µg plasmid, 24 h): did not change CCR2 levels at any of the concentrations tested

Molecule: COc1cc(C(=O)O)ccc1NC(=O)[C@@H]1N[C@@H](CC(C)(C)C)[C@](C#N)(c2ccc(Cl)cc2F)[C@H]1c1cccc(Cl)c1F [idasanutlin]
- HaloPROTAC3-mediated CCR2 degradation after pretreatment with the inhibitor (CCR2-HaloTag-HiBiT [1]): neither pomalidomide nor idasanutlin had an effect

Molecule: Nc1cccc2c1C(=O)N(C1CCC(=O)NC1=O)C2=O (stereo not shown) [pomalidomide]
- HaloPROTAC3-mediated CCR2 degradation after pretreatment with the inhibitor (CCR2-HaloTag-HiBiT [1]): neither pomalidomide nor idasanutlin had an effect

Molecule: CCL2: endogenous chemokine ligand of CCR2
- efficacy (Emax) of CCL2 (CCR2-HaloTag-HiBiT [6]): 68 ± 8%
- pEC50 of CCL2-induced impedance increase (CCR2-HaloTag-HiBiT [6]): 7.6 ± 0.2
- EC50 (CCR2-HaloTag-HiBiT [6]; read-out: EC50 of CCL2-induced impedance increase): 29 nM
